Our source for the TGI and GI50 values is PubChem BioAssay (NCI).

Molecules are shown by their SMILES.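 Grown in 96-well plates, cells were treated for 48 hours with each compound at five concentrations. Insufficient inhibition: endpoint recorded as highest concentration tested. The concentration for 50% growth inhibition is given as GI50. TGI denotes the concentration required for complete inhibition of growth.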 Where only a bound is given, the exact number is not on record here.

Assay in all cases: DTP human tumour cell line panel, 48 h
The subject of test [1] is UO-31 renal.
In test [2] the test system is M14 melanoma.
Test [3] relates to SF-539 CNS.
The test system of test [4] is HCC-2998 colon.
The subject of test [5] is SK-MEL-2 melanoma.
Test [6] relates to IGROV1 ovarian.
In test [7] the test system is SR leukemia.
Test [8] relates to MCF7 breast.
The subject of test [9] is BT-549 breast.
For test [10], the system named is DU-145 prostate.

Take `COc1cc(/C=N\O[Si](C)(C)C(C)(C)C)ccc1O[Si](C)(C)C(C)(C)C`: the TGI (in general, the concentration at which net growth stops) was over 100 µM in test [1]; over 100 µM in test [2]; over 100 µM in [3]; 56.8 µM in [4]; over 100 µM in [5]; over 100 µM in [6].
With `COc1cc(-c2nnc3n2NC=C(C(=O)O)S3)cc(OC)c1OC`, the TGI in test [1] was over 100 µM; in [2], over 100 µM; in [3], over 61.4 µM; in test [4], over 100 µM; in [5], over 100 µM; in test [7], over 100 µM. The TGI in test [6] was over 100 µM.
Consider `CCOC(=O)C(C)(c1c(C)[nH]c2ccccc12)c1c(C)[nH]c2ccccc12`, for which the TGI in test [1] came to 35 µM; in test [2] it was 29.8 µM; in test [3] it was 39.1 µM; in [4], 45.2 µM; in [5], 38.4 µM; in test [6] it was 51.3 µM.
Take `NC(CCc1ncc(C(=O)O)s1)C(=O)O` (stereo not given): the TGI in [1], in [2], in test [3], in test [4] and in test [6] was over 100 µM throughout.
As for `Cc1ccc(C)c(N2C(=O)C(=O)C(c3nc4ccccc4o3)/C(=N/N)C2=O)c1` (stereo not given), the TGI in test [1], in test [2], in test [3], in test [4], in test [5] and in [7] was over 100 µM in each case. Also, the TGI in test [6] was over 100 µM.
Regarding `CC1CCC(C(C)(C)c2ccccc2)C(=O)C1` (stereo not given), the TGI in test [1], in test [2], in test [3], in test [4], in [5] and in test [6] was over 100 µM throughout.
As for `NC(=O)c1cn(Cc2ccccc2)c(=O)n1Cc1ccccc1`, the concentration for total growth inhibition (TGI) in test [1], in [2], in [3], in test [4], in test [5] and in [6] was over 100 µM in each case.
As to `CCOc1ccc(N=Cc2c3ccccc3nc3ccccc23)cc1`, the TGI in test [1], in [2], in [3], in test [4], in [5] and in test [6] was over 100 µM in each case.
Take `COC(=O)[C@]12CC[C@@H](C)[C@H](C)[C@@H]1C1=CC[C@@H]3[C@@]4(C)C(C=O)=C[C@@](C)(COC(=O)c5ccco5)[C@@H]4[C@H](O)C[C@@]3(C)[C@]1(C)CC2`: the GI50 (commonly the concentration at which growth is held to half of that of the control) was 1.66 µM in test [1]; 0.305 µM in [2]; 1.89 µM in test [3]; 2.31 µM in test [8]; 2.07 µM in test [9]; 1.92 µM in test [4]. The figures for the GI50 in test [5], in [7] and in test [6] were 0.423 µM, 1.8 µM and 3.03 µM, respectively. Also, the TGI in test [1] is 3.48 µM; in test [2], 2.6 µM; in test [3] it was 3.93 µM; in [8] it was 9.86 µM; in [9], 6.65 µM; in test [4] it was 3.71 µM. Further, the TGI in test [5] is 1.9 µM; in test [7], 5.13 µM; in test [6], over 100 µM.
As for `O=C1c2ccc3c4ccccc4n(-c4ccccc4)c3c2C(=O)N1c1ccc(Cl)cc1`, the TGI in [1], in test [2], in test [3], in test [4], in test [5] and in [7] was over 100 µM in each case. The compound also returned a TGI in [6] of over 100 µM.
With `COc1ccc(-c2cc(-c3ccc(Nc4ccnc5cc(Cl)ccc45)cc3)nc(N3CCOCC3)n2)cc1`, the GI50 was over 100 µM in [1]; 2.81 µM in [2]; 2.73 µM in test [9]; over 100 µM in test [4]; 11.7 µM in test [5]. For the same compound, the TGI in test [1] is over 100 µM; in [2], over 100 µM; in test [9], over 100 µM; in test [4], over 100 µM; in test [5], 61.5 µM.
As for `CCCCCCCCCCCCCCCCCCC1=C(O)C(=O)C=C(OC)C1=O`, the TGI in test [1] was over 100 µM; in test [2] it was over 100 µM; in [3] it was over 100 µM; in test [4], over 100 µM; in [5], 76.5 µM; in [7], over 100 µM. In [6], this compound registered a TGI of over 100 µM.
Take `CC12CCC(=O)N1c1cccnc1N2` (stereo not given): the TGI in test [1], in [2], in [3], in [4], in test [5] and in test [6] was over 100 µM in each case.
In the case of `CCOC(=O)C1=C(Nc2ccc(Br)cc2)OCC1=O`, the TGI in [1], in [2], in test [3], in [4], in test [5] and in test [7] was over 100 µM each time. The compound also yielded a TGI in test [6] of over 100 µM.
Regarding `O=C1C=CC(=CC=C2C=CN(CCCCCCCCCCC(=O)NCCCCCCCCCCCC(=O)O)C=C2)C=C1`, the TGI in test [1], in [2], in [3], in test [4], in test [7] and in test [6] was over 100 µM each time.
For the compound `C[Si](C)(C)CN1C(=O)c2ccccc2C1(O)c1ccccc1` (stereo not given), the TGI in test [1], in test [2], in test [3], in test [4], in test [5] and in [7] was over 100 µM each time. For the same compound, the TGI in [6] was over 100 µM.
For the compound `Cc1ccc(N2C(=O)N(c3ccc(C)cc3)C3(SC=NN3C)C2=O)cc1` (stereo not given), the TGI in [1], in test [2], in [3], in test [4], in test [7] and in test [6] was over 100 µM each time.
For the compound `NCCN.O=C([O-])[O-].O=C([O-])[O-].[Co+3].[K+]`, the GI50 in test [1], in [2], in test [3], in [5] and in test [6] was over 100 µM in each case. In addition, the TGI in test [1], in test [2], in [3], in test [5] and in test [6] was over 100 µM throughout.
Consider `CC(=O)[CH-]C(=O)c1ccccc1.CC(=O)[CH-]C(=O)c1ccccc1.O=S(=O)([O-])c1cc([O-])c2c([O-])cc(S(=O)(=O)[O-])cc2c1.[Na+].[Ti+4]`, for which the GI50 in test [1] is over 100 µM; in test [2], over 100 µM; in [3] it was 83.3 µM; in test [4], over 100 µM; in test [5], over 100 µM; in test [6], over 100 µM. The TGI in test [1], in [2], in test [3], in test [4], in test [5] and in [6] was over 100 µM each time.
Turning to `Cc1c(Cl)cccc1NC(=O)c1cccc([N+](=O)[O-])c1O`, the TGI in test [1] was 40.5 µM; in test [2] it was over 78.9 µM; in [3], 40.6 µM; in [4], 78.6 µM; in test [5], 36.9 µM; in test [7] it was 74.8 µM. Further, the TGI in [6] was over 83.2 µM.
With `O=C1c2ccccc2C(=O)N1C/C=N/NS(=O)(=O)c1ccc(Br)cc1`, the TGI in test [1], in test [2], in [3], in test [4], in [5] and in test [7] was over 100 µM each time. For the same compound, the TGI in [6] is over 100 µM.
For the compound `NC(=O)CNc1ccc([As]=[As]c2ccc(NCC(N)=O)cc2)cc1` (stereo not given), the GI50 in test [1] was 8.21 µM; in test [2], 5.02 µM; in test [3], 2.8 µM; in test [10], 6.48 µM; in test [8], 2.12 µM; in [4], 13.9 µM. Also, the GI50 in test [7] is 2.25 µM; in test [6], 3.37 µM. Moreover, the TGI was 24.5 µM in [1]; 20.6 µM in test [2]; over 100 µM in test [3]; 35 µM in test [10]; 15.2 µM in test [8]; 29.7 µM in [4]. Further, the TGI is over 100 µM in test [7] and 23.8 µM in test [6].
In the case of `CSc1ccc2c(cc1=O)[C@@H](NC(=O)c1cc(O)c(O)c(O)c1)CCc1cc(O)c(O)c(O)c1-2`, the TGI in test [1] is 83.8 µM; in test [2], 36.6 µM; in [3], 52.3 µM; in [4], over 100 µM; in test [7], 50.9 µM.
For the compound `N#Cc1c(-c2ccco2)cc(-c2ccc(N)cc2)[nH]c1=O`, the TGI in [1], in test [2], in [3], in test [4], in test [7] and in [6] was over 100 µM in each case.
As to `Cc1ccc2c(c1-c1ccccc1)C(=O)OC2`, the TGI in [1], in test [2], in test [4], in test [5], in test [7] and in [6] was over 100 µM in each case.
For `CCC[CH2][Sn]1([CH2]CCC)[O]CC(COc2c(Cl)cc(Cl)cc2Cl)[O]1` (stereo not given), the GI50 in test [1] was 1.68 µM; in test [2], 1.72 µM; in test [3], 1.64 µM; in [4] it was 1.51 µM; in test [5], 0.58 µM; in test [6], 1.8 µM. The TGI in test [1] worked out at 3.21 µM; in test [2], 3.13 µM; in [3], 3.43 µM; in [4], 2.95 µM; in [5], 1.91 µM; in test [6], 3.46 µM.
With `CCc1cccc(C)c1NC(=O)CC1C(=O)Nc2ccccc2S1=O` (stereo not given), the TGI is over 100 µM in test [1]; over 100 µM in test [2]; 79.2 µM in [3]; over 100 µM in test [4]; over 100 µM in test [5]; over 100 µM in test [7].
Take `C1=NC(N(Cc2ccccc2)Cc2ccccc2)N(Cc2ccccc2)N1` (stereo not given): the TGI in test [1] worked out at 33.9 µM; in test [2] it was 23.1 µM; in [3], 29.5 µM; in [4], 36.4 µM; in [5], 31.8 µM; in test [6], 33.6 µM.
Regarding `Cc1ccc(C)c(N2C(=O)C(=O)C(c3nc4ccccc4o3)/C(=N\NC(=O)c3ccccc3O)C2=O)c1` (stereo not given), the TGI was 87.6 µM in [1]; over 100 µM in [2]; 65.2 µM in [3]; over 100 µM in test [4]; over 100 µM in [5]; 76.2 µM in [7]. The compound further came in with a TGI in [6] of over 100 µM.
`CCc1nc(Cl)c(Cl)c(Cl)n1`: the TGI in [1], in test [2], in [3], in [8], in test [9] and in test [4] was over 100 µM throughout. Also, the TGI in test [5], in [7] and in [6] was over 100 µM throughout.
Regarding `Cc1ccc2[c](c1)[Sn]([c]1ccccc1)([c]1ccccc1)[c]1cc(C)ccc1N2C`, the GI50 in test [1] was over 100 µM; in test [2], 80.5 µM; in test [3], over 100 µM; in [4], 26.4 µM; in test [5] it was 11.2 µM; in test [7], 0.116 µM. Also, in test [6], the GI50 was 58.7 µM. The concentration for total growth inhibition (TGI) in test [1] is over 100 µM; in test [2] it was over 100 µM; in [3] it was over 100 µM; in test [4], over 100 µM; in [5], 51.9 µM; in test [6], over 100 µM.
